Assay results published in patent US6355428B1, “Nucleic acid ligand interaction assays” (Genelabs Technologies, Inc., priority 1998, dated 2002).

Legend:
[1] = tested on: A/T rich indicator duplex 5′-CTTTATTATTTT-3′ (SEQ ID NO: 2 and complement) versus competitor oligonucleotides; test: Fluorescence quenching competition assay with unlabeled competitor duplexes; type: binding; details: for sequence preference from competitor oligos of Table III (FIG. 6): 0.4 μM drug, 0.4 μM unlabeled duplex competitor; for 5 bp A/T site bound most strongly / preferred (FIGS. 11, 12) / discrimination among 5 bp A/T binding sites (FIGS. 11, 12): 5 bp A+T site competitors, Table VI
Excerpt: Direct assays, as described above, are useful for first level screening of ligand-oligonucleotide binding, e.g. preference for DNA vs. RNA, or A/T vs. C/G rich sequences. In a “next-stage” assay, termed herein a competition or competitive assay, a binding oligonucleotide for a particular ligand, such as determined from direct assays, is used as an “indicator” for competitive studies, which give a further level of detail about ligand binding preferences. A competition experiment starts with first and second indicator oligonucleotides, as described above, containing, respectively, a first group effective to produce a detectable signal, and a second group effective to alter this signal. At the beginning of the assay, the ligand is bound to a duplex of the sequences. Again, experimental conditions of temperature, salt content, etc. are preferably adjusted such that, in the absence of the ligand, the oligonucleotides would exist primarily in single-stranded form. As noted above, the preferred temperature is somewhat higher than the Tm of the duplex (in the absence of ligand) under the conditions of the assay. If desired, for the sake of convenience, conditions may be adjusted so that the assay can be carried out at or near room temperature.
At the beginning of the assay, the indicator sequences form a duplex in the presence of the ligand, so fluorescence is at a minimum for the system. (When other detection systems are used, the signal observed will be that in which the first and second groups are in close proximity.) A “competitor” sequence, having no second (e.g. quenching) group, is then added, typically as a duplex with its complementary sequence. The competing sequence tends to remove the ligand from the indicator duplex at concentrations that become lower as the affinity of the competing sequence for the ligand becomes greater. Alternatively, the competing sequence removes the ligand more effectively at concentrations equimolar with the indicator duplex as the affinity of the competing sequence for the ligand becomes greater. As the ligand is removed, the indicator sequences denature to single-stranded form, quenching is no longer effective (in an F/Q system), and fluorescence increases.
Competition Assays: Competition experiments were generally done in […] HEPES, pH 7.5, 0.1 mM EDTA and 50 mM NaCl. The drug concentration used in the competition assays depends upon the affinity of the drug for a given indicator. For the competition experiments shown, the netropsin and distamycin concentrations used were 0.4 μM. The amount of competitor oligo used was varied from 0.2 μM to 1.0 μM. The data shown is from competition experiments using 0.4 μM unlabeled duplex competitors (see Tables III-VI for the sequences of the competitor oligos).
An unlabeled competitor duplex, selected from those whose sequences are given in Table […], was added at a 0.4 μM concentration, and the change in fluorescence was noted.
Changes in fluorescence of the indicator duplex/netropsin mixture on adding each competitor oligonucleotide are given in FIG. 12.

[2] = tested on: 5′-CTTTTTTTTT-3′ (SEQ ID NO: 1) F/Q indicator pair; test: Fluorescence quenching direct binding assay, A/T rich DNA; details: increasing netropsin; tRNA added; room temperature
Procedure: (§1) The specific examples described in this section employ fluorescence quenching as the detection system. In these examples, because conditions are adjusted to maintain the oligonucleotides in single-stranded form in the absence of the ligand, the assay starts with the system at a high or maximum level of fluorescence, and fluorescence generally decreases, depending on binding affinity, as the ligand is added.
(§2) In the Figure legends, RNA oligonucleotides are denoted by an “r” at the beginning of the sequence, and single stranded controls by “ss” at the end of the sequence. These single stranded sequence, are used alone in control experiments, which thus employ only an “F” strand and no complementary quenching strand. Any quenching of fluorescence that is not due to hybridization can thus be acounted for. Maximum quenching expected on complete hybridization of these oligonucleotides is 85-90%; therefore some signal remains after complete hybridization. […]
(§3) According to the general method described above, increasing amounts of netropsin or actinomycin, respectively, were added to mixtures of selected F/Q indicator oligonucleotide pairs, whose sequences are shown in the legends of FIGS. 1 and 3. […] The Figures show the level of fluorescence observed, relative to a control having no added drug, for each indicator pair (or single strand) as the level of added drug was increased. […]

[3] = tested on: RNA 5′-rCUAGAUCUGA-3′ (SEQ ID NO: 23) double stranded RNA probe; test: Fluorescence quenching direct binding assay, RNA; details: change in fluorescence similar to single-stranded controls
Procedure: as §1
In the Figure legends, RNA oligonucleotides are denoted by an “r” at the beginning of the sequence, and single stranded controls by “ss” at the end of the sequence. These single stranded sequence, are used alone in control experiments, which thus employ only an “F” strand and no complementary quenching strand. Any quenching of fluorescence that is not due to hybridization can thus be acounted for. Maximum quenching expected on complete hybridization of these oligonucleotides is 85-90%; therefore some signal remains after complete hybridization. The signal is plotted so that it is normalized to the control signal in the absence of ligand.
Netropsin has been shown in previous studies to bind preferentially to A/T rich regions of DNA. […] Netropsin also binds well to the sequence 5′-GCGGTATTT-3′ (SEQ ID NO: 12), which is a useful “indicator” probe (as discussed below), having both C/G and A/T rich sequences. […]

[4] = tested on: G/C rich sequence 5′-CGCGCC-3′ (SEQ ID NO: 7) F/Q indicator pair; test: Fluorescence quenching direct binding assay, G/C rich DNA; details: change in fluorescence similar to single-stranded controls
Procedure: as §1, §2, §3

[5] = 5′-XAATTY-3′ competitor series, Table V

| Structure (SMILES) | sequence preference from competitor oligos of Table III (FIG. 6) [1] | 5 bp A/T site bound most strongly / preferred (FIGS. 11, 12) [1] | discrimination among 5 bp A/T binding sites (FIGS. 11, 12) [1] | X and Y combinations that competed most effectively (FIG. 9) [1, 5] | sensitivity to bases at the edge of the AATT site (FIGS. 9 and 10) [1, 5] | preferred 5 bp binding site ([1]; concluded from 5′-XAATTY-3′ series) | binding (decrease in fluorescence, FIG. 3A) [2] | binding (decrease in fluorescence, FIG. 3A) [3] | binding (decrease in fluorescence, FIG. 3A) [4] |
| --- | --- | --- | --- | --- | --- | --- | --- | --- | --- |
| Cn1cc(NC(=O)c2cc(NC(=O)c3cc(NC=O)cn3C)cn2C)cc1C(=O)NCCC(=N)N [Distamycin, distamycin] | strongly prefer A/T rich DNA | 5′-AATTA-3′ | relatively strong preferences | AA/TT, CA/TG, GA/TC, and TA/TA | much more sensitive | 5′-AATTA-3′ | – | – | – |
| Cn1cc(NC(=O)c2cc(NC(=O)CN=C(N)N)cn2C)cc1C(=O)NCCC(=N)N [Netropsin, netropsin] | strongly prefer A/T rich DNA | slight preference for the AAAAA site | considerably less discrimination | – | – | – | strongly prefers | does not bind well | does not bind well |
